Laboratory results taken from PubChem BioAssay AID330 (DTP/NCI, 2004).
Values joined by “and” are separate entries in the source; they are usually repeats but may differ in a detail not shown here. Identical values can stand only once. Inconclusive results and toxic doses are left out. How the source made its calls: active means survival T/C of 150% or more; inactive means T/C below 125% in these data.

Tested on: P388 leukemia ip, CD2F1 mice, survival T/C
Assay: NCI In Vivo Anticancer Drug Screen. Data for tumor model P388 Leukemia (intraperitoneal) in CD2F1 (CDF1) mice
Conditions: endpoint: median survival time, higher = longer survival
Outline: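 Mice carrying the transplanted tumor received test compound or vehicle. Survival was recorded in each group, and the value is the treated-group measurement divided by that of the vehicle-treated control group.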

[1] = dose: 50.0 mg/kg/injection, schedule: Q01DX005 (ip), vehicle: Klucel (hydroxypropylcellulose) (HPC)
[2] = dose: 100.0 mg/kg/injection, schedule: Q01DX005 (ip), vehicle: Klucel (hydroxypropylcellulose) (HPC)
[3] = dose: 200.0 mg/kg/injection, schedule: Q01DX005 (ip), vehicle: Klucel (hydroxypropylcellulose) (HPC)
[4] = dose: 50.0 mg/kg/injection, schedule: Q01DX009 (ip), vehicle: saline with Tween-80
[5] = dose: 50.0 mg/kg/injection, schedule: Q01DX005 (ip), vehicle: saline with Tween-80
[6] = dose: 100.0 mg/kg/injection, schedule: Q01DX005 (ip), vehicle: saline with Tween-80
[7] = dose: 200.0 mg/kg/injection, schedule: Q01DX005 (ip), vehicle: saline with Tween-80
[8] = dose: 60.0 mg/kg/injection, schedule: Q01DX005 (ip), vehicle: Klucel (hydroxypropylcellulose) (HPC)
[9] = dose: 120.0 mg/kg/injection, schedule: Q01DX005 (ip), vehicle: Klucel (hydroxypropylcellulose) (HPC)
[10] = dose: 240.0 mg/kg/injection, schedule: Q01DX005 (ip), vehicle: Klucel (hydroxypropylcellulose) (HPC)
[11] = dose: 50.0 mg/kg/injection, schedule: Q01DX009 (ip), vehicle: saline
[12] = dose: 100.0 mg/kg/injection, schedule: Q01DX009 (ip), vehicle: saline
[13] = dose: 200.0 mg/kg/injection, schedule: Q01DX009 (ip), vehicle: saline
[14] = dose: 12.5 mg/kg/injection, schedule: Q01DX005 (ip), vehicle: Klucel (hydroxypropylcellulose) (HPC)
[15] = dose: 25.0 mg/kg/injection, schedule: Q01DX005 (ip), vehicle: Klucel (hydroxypropylcellulose) (HPC)

Measured: T/C

C[C@H](C(O)CC(=O)C(C)(C)O)[C@H]1CC[C@@]2(C)[C@@H]3CC[C@H]4C(C)(C)[C@@H](OC5OC(COC6OC(CO)C(O)C(O)C6O)C(O)C(O)C5O)CC[C@]4(C)C3=CC[C@]12C (stereo partly specified)
inactive: dose: 9.25 mg/kg/injection, schedule: Q01DX005 (ip), vehicle: saline 100 % of control | dose: 18.5 mg/kg/injection, schedule: Q01DX005 (ip), vehicle: saline 100 % of control | dose: 37.0 mg/kg/injection, schedule: Q01DX005 (ip), vehicle: saline 112 % of control | dose: 74.0 mg/kg/injection, schedule: Q01DX005 (ip), vehicle: saline 105 % of control

COc1cccc(C(=O)NC[n+]2ccccc2)c1
inactive: dose: 25.0 mg/kg/injection, schedule: Q04DX003 (ip), vehicle: saline 100 % of control | dose: 50.0 mg/kg/injection, schedule: Q04DX003 (ip), vehicle: saline 100 % of control | dose: 100.0 mg/kg/injection, schedule: Q04DX003 (ip), vehicle: saline 109 % of control

NC(CSCNc1ncnc2c1ncn2C1OC(CO)C(O)C1O)C(=O)O (stereo unspecified)
inactive: dose: 100.0 mg/kg/injection, schedule: Q04DX002 (ip), vehicle: saline with Tween-80 105 % of control | dose: 200.0 mg/kg/injection, schedule: Q04DX002 (ip), vehicle: saline with Tween-80 105 % of control | dose: 400.0 mg/kg/injection, schedule: Q04DX002 (ip), vehicle: saline with Tween-80 102 % of control

O=[N+]([O-])c1ccc(S(=O)(=O)Cc2ccccc2)c2nonc12
inactive: dose: 3.12 mg/kg/injection, schedule: Q01DX009 (ip), vehicle: saline with Tween-80 99 % of control | dose: 6.25 mg/kg/injection, schedule: Q01DX009 (ip), vehicle: saline with Tween-80 107 % of control | dose: 12.5 mg/kg/injection, schedule: Q01DX009 (ip), vehicle: saline with Tween-80 100 % of control

CC(C)=CO[Si](C)(C)C
inactive: dose: 50.0 mg/kg/injection, schedule: Q01DX009 (ip), vehicle: olive oil, sesame oil, peanut oil 99 % of control | dose: 100.0 mg/kg/injection, schedule: Q01DX009 (ip), vehicle: olive oil, sesame oil, peanut oil 99 % of control | dose: 200.0 mg/kg/injection, schedule: Q01DX009 (ip), vehicle: olive oil, sesame oil, peanut oil 114 % of control

COc1ccc2c(c1)C(O)NC(=O)O2 (stereo unspecified)
inactive: [1] 98 % of control | [2] 103 % of control | [3] 119 % of control

O=CNc1cccnc1C1OCCO1
inactive: [1] 98 % of control | [2] 102 % of control | [3] 102 % of control

COc1ccc2c(c1OC)C(=O)OC2C(=O)NCCc1ccc2c(c1)OCO2 (stereo unspecified)
inactive: [1] 92 % of control | [2] 92 % of control | [3] 93 % of control

CN1CCC2(CC1)COCc1ccccc12
inactive: dose: 25.0 mg/kg/injection, schedule: Q01DX009 (ip), vehicle: saline with Tween-80 101 % of control | [4] 104 % of control

O=C1CSCN1N1CSCC1=O
inactive: [5] 101 % of control | [6] 102 % of control | [7] 98 % of control

O=C1c2ccccc2C(=O)c2c1c([N+](=O)[O-])c1c(c2[N+](=O)[O-])OCO1
inactive: dose: 60.0 mg/kg/injection, schedule: Q01DX005 (ip), vehicle: saline with Tween-80 86 % of control | dose: 120.0 mg/kg/injection, schedule: Q01DX005 (ip), vehicle: saline with Tween-80 86 % of control | dose: 240.0 mg/kg/injection, schedule: Q01DX005 (ip), vehicle: saline with Tween-80 96 % of control

COC(=O)c1nc(=S)[nH]c(C(=O)OC)c1C(=O)c1c(C)[nH]c2ccccc12
inactive: [8] 98 % of control | [9] 96 % of control | [10] 95 % of control

C[n+]1c2ccccc2c(Oc2c3ccccc3[n+](C)c3ccccc23)c2ccccc21
inactive: [8] 91 % of control | [9] 93 % of control | [10] 100 % of control

CC(C)N(CCNc1cccnc1[N+](=O)[O-])C(C)C
inactive: [11] 115 % of control | [12] 108 % of control | [13] 117 % of control

Nc1ccccc1SC1CCCCC1O (stereo unspecified)
inactive: dose: 25.0 mg/kg/injection, schedule: Q01DX009 (ip), vehicle: saline 101 % of control | [11] 97 % of control | [12] 97 % of control | [13] 102 % of control

CCCCCC(/C=C/C1C(O[Si](C)(C)C(C)(C)C)CC(N(C)C)C1(C/C=C/CCCC#N)S(=O)(=O)c1ccccc1)O[Si](C)(C)C(C)(C)C (stereo unspecified)
inactive: [8] 86 % of control | [9] 86 % of control

CC(C)N(C(C)C)P1N(C(C)(C)C)N=NN1C(C)(C)C
inactive: [14] 102 % of control | [15] 100 % of control | [1] 102 % of control and 107 % of control

CC(C)(C)C1CCC2(N3CCOCC3)C(C#N)CC2C1 (stereo unspecified)
inactive: [15] 105 % of control | [1] 102 % of control | dose: 50.0 mg/kg/injection, schedule: Q01DX005 (ip), vehicle: saline + Tween-80 + alcohol 105 % of control | [2] 103 % of control | dose: 100.0 mg/kg/injection, schedule: Q01DX005 (ip), vehicle: saline + Tween-80 + alcohol 110 % of control | [3] 97 % of control | dose: 200.0 mg/kg/injection, schedule: Q01DX005 (ip), vehicle: saline + Tween-80 + alcohol 94 % of control

Cc1c(N=Nc2cccc(Cl)c2Cl)c(-c2ccccc2)nn1C(=S)S
inactive: [5] 106 % of control | [6] 94 % of control | [7] 103 % of control

CN(C)c1nc2ccccn2c1C(=O)c1ccccc1
inactive: dose: 100.0 mg/kg/injection, schedule: Q04DX003 (ip), vehicle: Klucel (hydroxypropylcellulose) (HPC) 103 % of control | dose: 200.0 mg/kg/injection, schedule: Q04DX003 (ip), vehicle: Klucel (hydroxypropylcellulose) (HPC) 100 % of control | dose: 400.0 mg/kg/injection, schedule: Q04DX003 (ip), vehicle: Klucel (hydroxypropylcellulose) (HPC) 103 % of control

CC1CCC2(OC1)OC1CC3C4CC=C5CC(O)CCC5(C)C4CCC3(C)C1C2C (stereo unspecified)
inactive: [1] 100 % of control | [2] 89 % of control | [3] 86 % of control

CC1(C)CCC[C@]2(C)[C@@H](C=O)C(C=O)=CC[C@@H]12
inactive: dose: 3.12 mg/kg/injection, schedule: Q01DX005 (ip), vehicle: Klucel (hydroxypropylcellulose) (HPC) 102 % of control | dose: 6.25 mg/kg/injection, schedule: Q01DX005 (ip), vehicle: Klucel (hydroxypropylcellulose) (HPC) 103 % of control | [14] 106 % of control

Brc1cc2ccccc2c2ccccc12
inactive: [4] 99 % of control | dose: 100.0 mg/kg/injection, schedule: Q01DX009 (ip), vehicle: saline with Tween-80 99 % of control | dose: 200.0 mg/kg/injection, schedule: Q01DX009 (ip), vehicle: saline with Tween-80 93 % of control | dose: 400.0 mg/kg/injection, schedule: Q01DX009 (ip), vehicle: saline with Tween-80 93 % of control

Clc1ccc(NC2=NCCS2)cc1Cl
inactive: dose: 50.0 mg/kg/injection, schedule: Q01DX009 (ip), vehicle: Klucel (hydroxypropylcellulose) (HPC) 103 % of control | dose: 100.0 mg/kg/injection, schedule: Q01DX009 (ip), vehicle: Klucel (hydroxypropylcellulose) (HPC) 92 % of control | dose: 200.0 mg/kg/injection, schedule: Q01DX009 (ip), vehicle: Klucel (hydroxypropylcellulose) (HPC) 101 % of control

COC(=O)c1cc(=O)nc(NNC(C)=O)s1
inactive: [1] 103 % of control | [2] 96 % of control | [3] 106 % of control

O=C1CC(c2ccccc2)C(=O)N1CN1CC=CCC1 (stereo unspecified)
inactive: dose: 100.0 mg/kg/injection, schedule: Q01DX001 (ip), vehicle: Klucel (hydroxypropylcellulose) (HPC) 124 % of control
